Data as given in patent US20240217990A1 (Gilead Sciences, Inc., priority 2021, published 2024).

Assays:
TLR8 = target: T1, TLR8 (Homo sapiens, UniProt Q9NR97); experiment: TLR8 human PBMC cell-based assay (antagonist, Compound A stimulated cytokine release); conditions: human PBMCs; TLR8 agonist Compound A 800 nM, 6 hours; cytokines (TNFa and IL 12p40) in supernatant; read-out: TLR-8 EC50
T1 construct: Human peripheral blood mononuclear cells (PBMCs) consist of lymphocytes, monocytes and dendritic cells that express TLR7, TLR8 and TLR9; endogenous in cells; host or cells: cryopreserved human PBMCs from healthy donors
T1 sequence (Q9NR97 27-1041): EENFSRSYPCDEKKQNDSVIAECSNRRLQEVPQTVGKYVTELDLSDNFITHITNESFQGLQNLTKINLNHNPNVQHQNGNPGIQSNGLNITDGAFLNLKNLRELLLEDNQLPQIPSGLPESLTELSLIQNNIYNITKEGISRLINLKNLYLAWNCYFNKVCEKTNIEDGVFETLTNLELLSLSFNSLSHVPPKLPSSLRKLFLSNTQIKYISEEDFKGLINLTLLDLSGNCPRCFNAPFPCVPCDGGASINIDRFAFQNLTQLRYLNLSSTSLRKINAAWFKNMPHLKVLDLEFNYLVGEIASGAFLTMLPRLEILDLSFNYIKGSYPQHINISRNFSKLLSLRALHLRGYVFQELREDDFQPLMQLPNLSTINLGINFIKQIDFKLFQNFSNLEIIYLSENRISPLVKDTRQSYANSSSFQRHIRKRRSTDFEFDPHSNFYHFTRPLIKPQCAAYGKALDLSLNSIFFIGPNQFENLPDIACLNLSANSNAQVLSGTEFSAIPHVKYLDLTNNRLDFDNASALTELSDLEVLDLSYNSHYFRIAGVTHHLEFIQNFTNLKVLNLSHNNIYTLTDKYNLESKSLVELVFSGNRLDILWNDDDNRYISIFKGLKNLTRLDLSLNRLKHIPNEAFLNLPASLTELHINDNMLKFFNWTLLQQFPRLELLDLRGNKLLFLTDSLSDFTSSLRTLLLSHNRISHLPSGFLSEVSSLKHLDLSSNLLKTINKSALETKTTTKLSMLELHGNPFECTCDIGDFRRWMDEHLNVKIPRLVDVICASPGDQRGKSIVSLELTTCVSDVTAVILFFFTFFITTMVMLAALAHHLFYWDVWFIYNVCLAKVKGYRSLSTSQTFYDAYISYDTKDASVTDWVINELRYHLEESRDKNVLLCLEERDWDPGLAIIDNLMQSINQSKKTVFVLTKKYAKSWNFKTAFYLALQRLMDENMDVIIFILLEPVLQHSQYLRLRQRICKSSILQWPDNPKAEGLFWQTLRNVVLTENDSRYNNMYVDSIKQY
Summary of the method: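 Cryopreserved donor PBMCs (100,000/well, RPMI + 10% FBS) were preincubated 1 h with antagonist (10-point dose response, quadruplicate), then stimulated with Compound A (800 nM final) for 6 h at 37 °C. TNFa and IL-12p40 in supernatants were measured by electrochemiluminescence; sigmoidal fits gave EC50.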

TLR7 = target: T2, TLR7 (Homo sapiens, UniProt Q9NYK1); experiment: TLR7 human PBMC cell-based assay (antagonist, GS-986 stimulated cytokine release); conditions: human PBMCs; TLR7 agonist GS-986 400 nM, 6 hours; cytokines (IL-6 and IFNα) in supernatant; read-out: TLR-7 EC50
T2 construct: Human peripheral blood mononuclear cells (PBMCs) consist of lymphocytes, monocytes and dendritic cells that express TLR7, TLR8 and TLR9; endogenous in cells; host or cells: cryopreserved human PBMCs from healthy donors
T2 sequence (Q9NYK1 27-1049): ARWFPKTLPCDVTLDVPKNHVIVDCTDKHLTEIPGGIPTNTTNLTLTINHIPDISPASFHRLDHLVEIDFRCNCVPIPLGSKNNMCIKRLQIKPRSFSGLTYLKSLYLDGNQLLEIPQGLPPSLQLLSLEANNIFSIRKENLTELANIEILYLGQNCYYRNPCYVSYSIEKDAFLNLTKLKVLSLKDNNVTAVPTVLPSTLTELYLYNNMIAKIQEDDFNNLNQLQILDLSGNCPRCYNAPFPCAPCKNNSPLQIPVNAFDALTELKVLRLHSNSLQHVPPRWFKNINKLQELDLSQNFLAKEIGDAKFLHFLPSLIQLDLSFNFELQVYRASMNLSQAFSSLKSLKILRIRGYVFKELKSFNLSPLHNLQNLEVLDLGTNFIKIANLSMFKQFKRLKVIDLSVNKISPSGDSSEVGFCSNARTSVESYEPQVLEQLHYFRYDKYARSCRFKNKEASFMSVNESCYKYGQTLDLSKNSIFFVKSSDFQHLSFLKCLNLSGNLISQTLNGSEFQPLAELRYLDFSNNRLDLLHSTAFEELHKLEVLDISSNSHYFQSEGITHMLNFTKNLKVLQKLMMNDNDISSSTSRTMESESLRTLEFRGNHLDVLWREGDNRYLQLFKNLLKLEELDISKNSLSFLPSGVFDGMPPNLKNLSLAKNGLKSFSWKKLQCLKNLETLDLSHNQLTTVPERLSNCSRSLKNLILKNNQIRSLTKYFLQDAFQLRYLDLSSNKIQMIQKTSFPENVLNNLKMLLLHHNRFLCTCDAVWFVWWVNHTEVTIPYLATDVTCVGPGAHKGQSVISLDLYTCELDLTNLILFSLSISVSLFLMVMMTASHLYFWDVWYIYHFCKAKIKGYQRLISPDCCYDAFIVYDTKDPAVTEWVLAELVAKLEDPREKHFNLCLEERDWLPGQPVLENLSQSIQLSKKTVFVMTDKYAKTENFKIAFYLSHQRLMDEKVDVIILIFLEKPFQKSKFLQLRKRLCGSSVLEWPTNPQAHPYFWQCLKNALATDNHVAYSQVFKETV
Summary of the method: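 EC50 derived by sigmoidal fitting of IL-6 and IFNα levels, quantified by electrochemiluminescence in supernatants of human PBMCs given 400 nM GS-986 for 6 h. Cells (100,000/well in RPMI-1640, 10% FBS) had received test antagonist 1 h beforehand, 10 doses in quadruplicate, at 37 °C.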

EC50 (TLR8) [nM]	EC50 (TLR7) [nM]	SMILES
16.3	2.7	Cc1cc(-c2[nH]c3cc(C(=O)N(C)[C@@H]4CNC[C@H](C(F)(F)F)C4)sc3c2C(C)C)cn2ncnc12 [Example 276]
0.6	0.8	Cc1c(-c2[nH]c3cc(C(=O)N(C)C4CCN(C)CC4)sc3c2C(C)C)cn2ncnc2c1C [Example 151]
8.6	0.7	Cc1cc(-c2[nH]c3cc(C4CCN(C(=O)C5CCN(C)C5)CC4)sc3c2C(C)C)cn2ncnc12 (stereo not drawn) [Example 201]
301	21	Cc1c(C(=O)N2CCNCC2)sc2c(C(C)C)c(-c3cc(C)c4ncnn4c3)[nH]c12 [Example 240, (6-isopropyl-3-methyl-5-(8-methyl-[1,2,4]triazolo[1,5-a]pyridin-6-yl)-4H-thieno[3,2-b]pyrrol-2-yl)(piperazin-1-yl)methanone]
136	64.4	CO[C@@H]1CCN(C(=O)c2cc3[nH]c(-c4cc(C)nc(C)c4)c(C(C)C)c3s2)C[C@@H]1N [Example 25]
54	11.9	Cc1cc(-c2[nH]c3cc(C4CC5CCCC(C4)N5CC(N)=O)sc3c2C(C)C)cn2ncnc12 (stereo not drawn) [Example 302]
47.8	18.9	Cc1cc(-c2[nH]c3cc(C(=O)N4CCn5c(nnc5C(F)(F)F)C4)sc3c2C(C)C)cn2ncnc12 [Example 118]
37	29.8	Cc1cc(-c2[nH]c3cc(C(=O)N(C)[C@H]4CCNC4)sc3c2C(C)C)cn(C)c1=O [Example 36]
374	636	Cc1cc(-c2[nH]c3cc(C(=O)N4CCNC(C#N)C4)sc3c2C(C)C)cc(C)n1 (stereo not drawn) [Example 9]
2.3	0.5	Cc1cc(-c2[nH]c3cc(-c4ccc(N5CCNCC5)nc4)sc3c2C(C)C)cn2ncnc12 [Example 210]
2.5	1	Cc1c(-c2[nH]c3cc(C(=O)N(C)C4CCNCC4)sc3c2C(C)C)cn2ncnc2c1C [Example 150]
15.4	0.3	Cc1cc(-c2[nH]c3cc(C4CCC5(CC4)CN(C(=O)[C@@H]4CCCN4C)C5)sc3c2C(C)C)cn2ncnc12 [Example 206]
12.9	0.2	Cc1cc(-c2[nH]c3cc(C4CC5CNCC5C4)sc3c2C(C)C)cn2ncnc12 (stereo not drawn) [Example 158]
9.3	0.2	Cc1cc(-c2[nH]c3cc(C4=NCC5(CCNCC5)O4)sc3c2C(C)C)cn2ncnc12 [Example 70]
3.2	4.1	Cc1cc(-c2[nH]c3cc(C4CCN(CCS(C)(=O)=O)CC4)sc3c2C(C)C)cn2ncnc12 [Example 255, 6-isopropyl-5-(8-methyl-[1,2,4]triazolo[1,5-a]pyridin-6-yl)-2-(1-(2-(methylsulfonyl)ethyl)piperidin-4-yl)-4H-thieno[3,2-b]pyrrole]
14.6	24.5	Cc1cc(-c2[nH]c3cc(C4CCCN(CC(N)=O)C4)sc3c2C(C)C)cn2ncnc12 (stereo not drawn) [Example 171]
0.8	1.1	Cc1cc(-c2[nH]c3cc(C(=O)N4CCN[C@H](C)C4)sc3c2C(C)C)cn2ncnc12 [Example 128]
> 1000	895	Cc1cc(-c2[nH]c3cc(C(=O)N[C@H]4CCNC4)sc3c2C(C)C)cc(C)n1 [Example 6]

EC50 (TLR8) [nM]	EC50 (TLR7) [nM]	SMILES
0.5	1.9	Cc1cc(-c2[nH]c3cc(-c4ccc5c(c4)CNCC5)sc3c2C(C)C)cn2ncnc12 [Example 211]
8.2	3.76	Cc1cc(-c2[nH]c3cc(C4CCNC5(CCC5)C4)sc3c2C(C)C)cn2ncnc12 (stereo not drawn) [Example 296]
1.1	1.9	CN[C@@H]1CCN(C(=O)c2cc3[nH]c(-c4cc(C)c5ncnn5c4)c(C(C)C)c3s2)C1 [Example 72]
25.1	1.1	Cc1cc(-c2[nH]c3cc(C(=O)N(C4CCC4)C4CCNCC4)sc3c2C(C)C)cn2ncnc12 [Example 84]
21.3	11.3	Cc1cc(-c2[nH]c3cc(C(=O)N4CCC[C@H]4CN(C)C)sc3c2C(C)C)cn2ncnc12 [Example 103]
7.7	1	Cc1cc(-c2[nH]c3cc(C4CCN(C(=O)CN(C)C)CC4)sc3c2C(C)C)cn2ncnc12 [Example 181]
32	49.9	Cc1cc(-c2[nH]c3cc(C(=O)N4C5CCC4CNC5)sc3c2C(C)C)cc(C)n1 [Example 17]
27	0.7	Cc1cc(-c2[nH]c3cc(C(=O)N(C4CCNCC4)C4CC4)sc3c2C(C)C)cn2ncnc12 [Example 143]
3.3	0.8	Cc1cc(-c2[nH]c3cc(-c4ccc(C5CCNCC5)cc4)sc3c2C(C)C)cn2ncnc12 [Example 221]
5.3	37.8	Cc1cc(-c2[nH]c3cc(-c4cccc5c4CCNC5)sc3c2C(C)C)cn2ncnc12 [Example 225]
137	44.3	Cc1cc(-c2[nH]c3cc(C(=O)N(C)Cc4cccnc4)sc3c2C(C)C)cn2ncnc12 [Example 137]
219	15.4	Cc1c(C(=O)N2CCC[C@H](N)[C@@H]2C)sc2c(C(C)C)c(-c3cc(C)c4ncnn4c3)[nH]c12 [Example 242]
12.3	0.3	Cc1cc(-c2[nH]c3cc(C4CCC5(CC4)CN(C(=O)CN4CCCC4)C5)sc3c2C(C)C)cn2ncnc12 [Example 208]
0.5	0.4	Cc1c(-c2[nH]c3cc(-c4ccc(N5CCNCC5)nc4)sc3c2C(C)C)cn2ncnc2c1C [Example 228]
92	60	Cc1cc(-c2[nH]c3cc(C(=O)N(C)[C@H]4CCCNC4)sc3c2C(C)C)cc(C)n1 [Example 29]
0.8	0.1	Cc1cc(-c2[nH]c3cc(C(=O)N4CCC[C@H]5NCCC[C@H]54)sc3c2C(C)C)cn2ncnc12 [Example 110]
6.5	0.6	Cc1cc(-c2[nH]c3cc(C(=O)N(C)[C@@H]4CCNC[C@H]4F)sc3c2C(C)C)cn2ncnc12 [Example 76]
19.8	0.6	Cc1cc(-c2[nH]c3cc(C(=O)N4CCC[C@@H]5NCC[C@@H]54)sc3c2C(C)C)cn2ncnc12 [Example 93]
